Data on nine molecules can be found in PMC10180490, “New Indazol-Pyrimidine-Based Derivatives as Selective Anticancer Agents: Design, Synthesis, and In Silico Studies” (Molecules, 2023).

The IC50 is the concentration that gives 50% inhibition. A lower IC50 goes with greater potency in that assay. Broadly, the melting point is the temperature of the solid-liquid transition.

Data set [1] relates to breast cancer cells (MCF-7). Kind of data set: MTT cytotoxicity assay, MCF-7. The format is cell-based. Conditions: Homo sapiens, MCF7, MCF-7 cells, 48 h. The procedure: (§1) All of the synthesized compounds were screened for their cytotoxic effect against three different human cancer cells, namely breast cancer cells (MCF-7), lung cancer cells (A549), and colorectal adenocarcinoma cells (Caco2), using the MTT cytotoxic assay. […] Then, 3-[4,5-dimethylthiazol-2-yl]-2,5-diphenyl tetrazolium bromide (MTT) was added.

Data set [2] concerns colorectal adenocarcinoma cells (Caco2). In words: MTT cytotoxicity assay, Caco2. The format is cell-based. The conditions noted are these: Homo sapiens, Caco-2, 48 h. The procedure: as §1
Another data set concerns lung cancer cells (A549). In words: MTT cytotoxicity assay, A549. In kind it is cell-based, human. On the procedure: as §1
(Formazan colour is commonly taken as a measure of viable cells.)

Data set [3] has as its system MCF-7 cells. Kind of data set: Cell cycle analysis by DNA flow cytometry. In kind it is cell-based, human. The conditions noted are these: MCF-7, 24 h; for increase in the percentage of cells in the G0-G1 phase: compared with the control (53.89%). On the procedure: An encouraging strategy for cancer therapy is targeting the cell cycle, according to the reported method. In this study, compounds 4i and 4f were tested—using a DNA flow cytometry assay—for their effects on the cell cycle of MCF-7 cells (Figure 2). […] Simultaneously, there was a significant reduction in the percentage of the cell population in the G2/M phase—32% and 46% for cells treated with compound 4f or 4i, respectively, compared with controls. The decline in the proportion of cells in the G2/M phase as well as the increase in the cell population in the G0-G1 and S phases indicate a reduction in cell cycle progression in MCF-7 cells.
On the technique in general: Flow cytometry measures light scatter and fluorescence of single cells or particles in a stream.

In data set [4] the test system is mammary gland epithelial cell line MCF-10a. In words: Cytotoxicity toward normal cells MCF-10a. The format is cell-based, human. The conditions noted are these: for SI (selectivity index): MCF-10a IC50 relative to MCF-7 IC50.
Data set [5] can be described thus: Cytotoxicity toward normal cells MCF-10a. In kind it is cell-based, human. Conditions: human, MCF-10a mammary gland epithelial cells (normal), MCF-10a normal cell line.
The subject of data set [6] is MCF-7 cells. In words: Annexin-V/PI apoptosis assay. The format is cell-based, human. The conditions noted are these: MCF-7, 24 h; for Annexin V/PI quadrant, remaining (necrosis): Figure 3, quadrant not given, assigned by elimination; for average increment at the early phase of apoptosis / average increment in late-stage apoptosis: average for the treated groups; for percentage of Annexin V/PI-stained cells: both early and late phases of apoptosis, untreated 1.76%. On the procedure:
To assess the apoptotic potential, MCF-7 cells were treated with compound 4i or 4f for 24 h and then assayed for Annexin-V/PI (propidium iodide) binding according to the reported protocol. […] At the early phase of apoptosis, the average increment for the treated groups was around 27%, while it was around 14% in late-stage apoptosis.
Apoptosis was measured using an Annexin V-FITC Apoptosis Detection Kit and analyzed using FACSCalibur flow cytometer.

Data set [7] concerns caspase-3/7 in MCF-7 cells. Kind of data set: Caspase-3/7 Green flow cytometry assay. In kind it is cell-based, human. Conditions: untreated controls 0.43%. The procedure:
Caspases are essential factors in apoptotic cell death since they play a key role in maintaining homeostasis, and their activation induces apoptosis.
Caspase-3/7 activity was calculated using Caspase-3/7 Green Flow Cytometry Assay Kit Catalog # C10427.

`NS(=O)(=O)c1ccc(Nc2nccc(Nc3ccc4[nH]ncc4c3)n2)cc1` [Compound 4g, 4-((4-((1H-indazol-5-yl)amino)pyrimidin-2-yl)amino) benzenesulfonamide]: the IC50 was found to be 4.68 ± 0.22 µM in [1]; 6.91 ± 0.34 µM in [2]; 11.2 ± 0.62 µM in the data set with lung cancer cells (A549) (Homo sapiens, A549, 48 h).
With `Fc1cnc(Nc2ccc(N3CCOCC3)cc2)nc1Nc1ccc2[nH]ncc2c1` [Compound 4f, 5-fluoro-N4-(1H-indazol-5-yl)-N2-(4-morpholinophenyl) pyrimidine-2,4-diamine], the IC50 was 1.63 ± 0.08 µM in data set [1]; 22.3 ± 1.11 µM in data set [2]; 12.8 ± 0.71 µM in the data set on lung cancer cells (A549) (Homo sapiens, A549, 48 h); 23.7 ± 1.17 µM in [5]. The “reduction in the percentage of the cell population in the G2/M phase” value in the data set on MCF-7 cells [3] (compared with controls) was 32%. The “increase in the percentage of cells in the G0-G1 phase” value in the data set with MCF-7 cells [3] is on record as “around 7%”. Moreover, the “SI (selectivity index)” value in data set [4] was found to be 14.5. In addition, the “Annexin V/PI quadrant, remaining (necrosis)” value with MCF-7 cells [6] came out at 3.23%. For the same molecule, the “average increment at the early phase of apoptosis” value in the data set with MCF-7 cells [6] was “around 27%”. Also, the “average increment in late-stage apoptosis” value with MCF-7 cells [6] is listed as “around 14%”. The “percentage of Annexin V/PI-stained cells” value in the data set on MCF-7 cells [6] is reported as “about 47%”. Also, the “levels of active caspase-3/7 expression” value in [7] worked out at 19%.
On to `O=S(=O)(Nc1nccs1)c1ccc(Nc2nccc(Nc3ccc4[nH]ncc4c3)n2)cc1` [Compound 4h, 4-((4-((1H-indazol-5-yl)amino)pyrimidin-2-yl)amino)-N-(thiazol-2-yl)benzenesulfonamide], for which the melting point lay in the range of 211 to 213 °C. In [1], half-maximal inhibition (IC50) was put at 21.1 ± 1.01 µM. The same molecule showed an IC50 in [2] of 17.3 ± 0.86 µM. In addition, the IC50 with lung cancer cells (A549) (Homo sapiens, A549, 48 h) stood at 23.5 ± 1.3 µM.
On to `NS(=O)(=O)c1cccc(Nc2ncc(F)c(Nc3ccc4[nH]ncc4c3)n2)c1` [Compound 4d, 3-((4-((1H-indazol-5-yl)amino)-5-fluoropyrimidin-2-yl)amino)benzenesulfonamide], for which the melting point fell in the range of 286 to 288 °C. In data set [1], this molecule gave an IC50 of 4.8 ± 0.23 µM. For the same molecule, the IC50 in data set [2] is 9.63 ± 0.48 µM. The IC50 in the data set on lung cancer cells (A549) (Homo sapiens, A549, 48 h) amounted to 13.5 ± 0.74 µM.
Molecule `NS(=O)(=O)c1ccc(Nc2ncc(F)c(Nc3ccc4[nH]ncc4c3)n2)cc1` [Compound 4e, 4-((4-((1H-indazol-5-yl)amino)-5-fluoropyrimidin-2-yl)amino)benzenesulfonamide] yielded a melting point of 303 to 305 °C. Inhibition in data set [1] was half-maximal at 25.1 ± 1.2 µM (IC50). The molecule further had an IC50 in data set [2] of 7.17 ± 0.36 µM. Further, in the data set on lung cancer cells (A549) (Homo sapiens, A549, 48 h), the IC50 came out at 46.6 ± 2.57 µM.
Take `O=S(=O)(Nc1ncccn1)c1ccc(Nc2ncc(F)c(Nc3ccc4[nH]ncc4c3)n2)cc1` [Compound 4a, 4-((4-((1H-indazol-5-yl)amino)-5-fluoropyrimidin-2-yl)amino)-N-(pyrimidin-2-yl)benzenesulfonamide]: the melting point fell in the range of 343 to 345 °C. In data set [1], the 50% inhibitory concentration (IC50) was 2.96 ± 0.14 µM. In [2], this molecule gave an IC50 of 10.3 ± 0.51 µM. Further, in the data set on lung cancer cells (A549) (48 h), the IC50 was 3.2 ± 0.18 µM. In the data set on lung cancer cells (A549) (Homo sapiens, A549, 48 h), the half-maximal inhibitory concentration (IC50) stood at 3.3 µM.
Take `COc1cc(Nc2nccc(Nc3ccc4[nH]ncc4c3)n2)cc(OC)c1OC` [Compound 4i, N4-(1H-indazol-5-yl)-N2-(3,4,5-trimethoxyphenyl) pyrimidine-2,4-diamine]: the IC50 in [1] was determined as 1.84 ± 0.09 µM; in [2] it was 4.99 ± 0.25 µM; in the data set on lung cancer cells (A549) (Homo sapiens, A549, 48 h), 2.31 ± 0.13 µM; in [4] (MCF-10a normal cell line) it was 29.5 ± 1.46 µM; in data set [5], 29.5 µM. The “increase in the percentage of the cell population in the S phase” value in the data set with MCF-7 cells [3] (compared with control) amounted to 3%. Besides, the “increase in the percentage of cells in the G0-G1 phase” value in the data set on MCF-7 cells [3] is recorded as “around 7%”. For the same molecule, the “SI (selectivity index)” value in data set [4] is recorded as 16.03. Also, the “Annexin V/PI quadrant, remaining (necrosis)” value in the data set with MCF-7 cells [6] is 5.92%. For the same molecule, in the data set on MCF-7 cells [6], the “average increment at the early phase of apoptosis” value is “around 27%”. Also, the “average increment in late-stage apoptosis” value with MCF-7 cells [6] is “around 14%”. Further, the “percentage of Annexin V/PI-stained cells” value in the data set on MCF-7 cells [6] is given as “about 47%”. In data set [7], the “levels of active caspase-3/7 expression” value is given as 26.5%.
`O=S(=O)(Nc1nccs1)c1ccc(Nc2ncc(F)c(Nc3ccc4[nH]ncc4c3)n2)cc1` [Compound 4b, 4-((4-((1H-indazol-5-yl)amino)-5-fluoropyrimidin-2-yl)amino)-N-(thiazol-2-yl)benzenesulfonamide] came in with a melting point of 285 to 287 °C. In [1], this molecule returned an IC50 of 14.3 ± 0.68 µM. Besides, the IC50 in [2] came out at 31.2 ± 1.55 µM. This molecule also registered an IC50 in the data set on lung cancer cells (A549) (Homo sapiens, A549, 48 h) of 52.9 ± 2.92 µM.
On the same counts, the results for `COc1cc(Nc2ncc(F)c(Nc3ccc4[nH]ncc4c3)n2)cc(OC)c1OC` [Compound 4c, 5-fluoro-N4-(1H-indazol-5-yl)-N2-(3,4,5-trimethoxyphenyl)pyrimidine-2,4-diamine] are 352 to 354 °C, 29.1 ± 1.4 µM, 67.8 ± 3.36 µM and 58.8 ± 3.25 µM.
